These results are taken from patent publication US10695337B2, “Piperidin-4-yl azetidine derivatives as JAK1 inhibitors” (Incyte Corporation, priority 2010, dated 2020).

The test addresses human JAK1 (a.a. 837-1142). As to the kind of experiment: In vitro JAK kinase assay (HTRF, phosphorylation of a biotinylated peptide), JAK1. Format: biochemical. The note with it: measured at 1 mM ATP; JAK2 IC50 / JAK1 IC50. Summed up:
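N-terminal His-tagged catalytic domains, baculovirus-expressed in insect cells, phosphorylated a biotinylated peptide for 1 hr at room temperature. EDTA stop was followed by SA-APC and Eu-Py20 antibody for 40 minutes, with phosphopeptide read by HTRF.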

Turning to `N#CCC1(n2cc(-c3ncnc4[nH]ccc34)cn2)CN(C2CCN(Cc3ccc4c(c3)OCCO4)CC2)C1` [Example 234, {1-[1-(2,3-dihydro-1,4-benzodioxin-6-ylmethyl)piperidin-4-yl]-3-[4-(7H-pyrrolo[2,3-d]pyrimidin-4-yl)-1H-pyrazol-1-yl]azetidin-3-yl}acetonitrile], the “IC50 Ratio JAK2/JAK1” value is listed as 4.2.

Regarding `N#CCC1(n2cc(-c3ncnc4[nH]ccc34)cn2)CN(C2CCN(C(=O)c3ccc4ncccc4c3)CC2)C1` [Example 89, {3-[4-(7H-pyrrolo[2,3-d]pyrimidin-4-yl)-1H-pyrazol-1-yl]-1-[1-(quinolin-6-ylcarbonyl)piperidin-4-yl]azetidin-3-yl}acetonitrile], the “IC50 Ratio JAK2/JAK1” value is 2.6.

Turning to `COc1ncccc1NC(=O)N1CCC(N2CC(CC#N)(n3ccc(-c4ncnc5[nH]ccc45)c3)C2)CC1` [Example 284, 4-{3-(cyanomethyl)-3-[3-(7H-pyrrolo[2,3-d]pyrimidin-4-yl)-1H-pyrrol-1-yl]azetidin-1-yl}-N-(2-methoxypyridin-3-yl)piperidine-1-carboxamide], the “IC50 Ratio JAK2/JAK1” value was 5.8.

As for `COc1ccc(F)cc1C(=O)N1CCC(N2CC(CC#N)(n3cc(-c4ncnc5[nH]ccc45)cn3)C2)CC1` [Example 38, {1-[1-(5-fluoro-2-methoxybenzoyl)piperidin-4-yl]-3-[4-(7H-pyrrolo[2,3-d]pyrimidin-4-yl)-1H-pyrazol-1-yl]azetidin-3-yl}acetonitrile], the “IC50 Ratio JAK2/JAK1” value came to 5.7.

On to `COc1nc(CN2CCC(N3CC(CC#N)(n4cc(-c5ncnc6[nH]ccc56)cn4)C3)CC2)ccc1C#N` [Example 224, 6-[(4-{3-(cyanomethyl)-3-[4-(7H-pyrrolo[2,3-d]pyrimidin-4-yl)-1H-pyrazol-1-yl]azetidin-1-yl}piperidin-1-yl)methyl]-2-methoxynicotinonitrile], for which the “IC50 Ratio JAK2/JAK1” value turned out to be 2.4.

On to `N#CCC1(n2cc(-c3c(C#N)cnc4[nH]ccc34)cn2)CN(C2CCN(C(=O)c3cc(Br)ccc3Br)CC2)C1` [Example 335], for which the “IC50 Ratio JAK2/JAK1” value was 2.4.

For the compound `Cc1nc(NC(=O)N2CCC(N3CC(CC#N)(n4cc(-c5ncnc6[nH]ccc56)cn4)C3)CC2)sc1C` [Example 192, 4-{3-(cyanomethyl)-3-[4-(7H-pyrrolo[2,3-d]pyrimidin-4-yl)-1H-pyrazol-1-yl]azetidin-1-yl}-N-(4,5-dimethyl-1,3-thiazol-2-yl)piperidine-1-carboxamide], the “IC50 Ratio JAK2/JAK1” value is reported as 3.0.

Consider `N#CCC1(n2ccc(-c3ncnc4[nH]ccc34)c2)CN(C2CCN(C(=O)Nc3ccccc3C#N)CC2)C1` [Example 287, 4-{3-(cyanomethyl)-3-[3-(7H-pyrrolo[2,3-d]pyrimidin-4-yl)-1H-pyrrol-1-yl]azetidin-1-yl}-N-(2-cyanophenyl)piperidine-1-carboxamide], for which the “IC50 Ratio JAK2/JAK1” value is given as 6.7.

For the compound `N#CCC1(n2cc(-c3ncnc4[nH]ccc34)cn2)CN(C2CCN(C(=O)c3cccc(Br)c3)CC2)C1` [Example 20, {1-[1-(3-bromobenzoyl)piperidin-4-yl]-3-[4-(7H-pyrrolo[2,3-d]pyrimidin-4-yl)-1H-pyrazol-1-yl]azetidin-3-yl}acetonitrile], the “IC50 Ratio JAK2/JAK1” value turned out to be 4.2.

As to `N#CCC1(n2cc(-c3ncnc4[nH]ccc34)cn2)CN(C2CCN(C(=O)c3ccc(-c4cccc5ncccc45)c(F)c3)CC2)C1` [Example 129, {1-[1-(3-fluoro-4-quinolin-5-ylbenzoyl)piperidin-4-yl]-3-[4-(7H-pyrrolo[2,3-d]pyrimidin-4-yl)-1H-pyrazol-1-yl]azetidin-3-yl} acetonitrile], the “IC50 Ratio JAK2/JAK1” value was found to be 7.9.

Regarding `CCN(C)Cc1cc(C(=O)N2CCC(N3CC(CC#N)(n4cc(-c5ncnc6[nH]ccc56)cn4)C3)CC2)nc(C(F)(F)F)n1` [Example 374], the “IC50 Ratio JAK2/JAK1” value is 50.
